Reference: publication PMC11284789, “Biomimetic Analogues of the Desferrioxamine E Siderophore for PET Imaging of Invasive Aspergillosis: Targeting Properties and Species Specificity” (Journal of Medicinal Chemistry, 2024)
Read-outs that look alike come from different tables or passages of the source.

How the values were obtained:
[1] = parameters: method as in earlier work; conditions: cited from earlier work; for logβ Ga(III)L: T = 25 °C, I = 0.1 M NaClO4, M:L 1:1; for pGa(III): calculated for [L] = 1 × 10−4 [M] = 1 × 10−5 at pH 7.4
[2] = test system: A. fumigatus mutant strain ΔsidAΔftrA; test: Growth promotion assay (siderophore utilization), ΔsidAΔftrA; format: cell-based, Aspergillus fumigatus; conditions: siderophores in ferri-form, 0.1, 1.0, 10 and 50 μM; 48 h at 37 °C
Protocol: (§1) In order to investigate whether A. fumigatus is able to utilize the artificial FOX analogues in the iron form as an iron source, growth promotion assays were performed (Figure 2) using two A. fumigatus mutants. The mutant strain ΔsidAΔftrA is able to grow only in the presence of utilizable siderophores or ferrous iron concentration >3 mM.[10],[44] The second mutant, ΔsidAΔftrAΔsit1, additionally lacks the siderophore transporter Sit1, which exclusively mediates the uptake of ferrioxamine-type siderophores and is additionally involved in the uptake of ferrichrome-type and coprogen-type siderophores but not of FsC or TAFC.[19],[20] For growth promotion analysis, the mutants were spotted on iron-lacking media supplemented with different concentrations of siderophores. Control experiments confirmed the expected growth pattern: growth of ΔsidAΔftrA but not of ΔsidAΔftrAΔsit1 was promoted by supplementation with ferric FOXE; both mutant strains were able to grow in the presence of TAFC as uptake of this siderophore depends on MirB but not on Sit1; both mutant strains lacked growth without siderophore supplementation, and uninoculated media also lacked fungal growth. […] The utilization of iron from all artificial ferrioxamine analogues was mediated by Sit1 like that of natural ferrioxamine-type siderophores.[20]
Figure 2 Growth promotion analysis of FOX analogues. 10^4 conidia of A. fumigatus mutant strains ΔsidAΔftrA (A) and ΔsidAΔftrAΔsit1 (B) were point-inoculated for every condition. All natural and artificial siderophores were tested in the ferri-form in the concentrations 0.1, 1.0, 10, and 50 μM. As controls, TAFC, which is taken up in a Sit1-independent manner, and FOXE were included. Moreover, controls without siderophore supplementation with (+) or without (−) inoculation of conidia were included. Greenish coloration of the fungal colonies indicates asexual sporulation. Pictures were taken after 48 h of incubation at 37 °C. […]

[3] = cited from earlier work
[4] = test system: iron-starved (Fe(−)) A. fumigatus cultures; test: Short-term in vitro uptake of 68Ga-labeled siderophores; format: cell-based, Aspergillus fumigatus; conditions: paired t test, p < 0.01
Protocol: To investigate the short-term active transport of ^68Ga-labeled FOXE analogues by A. fumigatus, iron-starved (Fe(−)) cultures were used (Figure 3). As a control, the same cultures were incubated with Fe(III)-FOXE beforehand to saturate and therefore block Sit1-mediated activity. A decrease in uptake upon Fe(III)-FOXE blocking underlines specific uptake by the same transporters recognizing FOXE.
Figure 3 Uptake of ^68Ga-labeled FOXE analogues by Fe(III)-FOXE-blocked and -unblocked iron-starved (Fe(−)) A. fumigatus cultures after 45 min of incubation. * indicates significant difference of blocking compared with nonblocking (mean of three independent experiments, paired t test, p < 0.01).
Uptake assays were performed in both iron-deficient and iron-sufficient A. fumigatus cultures as described previously.[55] The uptake of each [^68Ga]Ga(III)-FOXE derivative was expressed as the ratio to [^68Ga]Ga(III)-FOXE uptake from the same experiment in order to normalize uptake variations between different fungal cultures. The mean values of three different assays were used to quantitatively compare the difference in uptake between the compounds.

[5] = test system: A. fumigatus mutant strain ΔsidAΔftrAΔsit1; test: Growth promotion assay (siderophore utilization), Sit1-lacking ΔsidAΔftrAΔsit1; format: cell-based, Aspergillus fumigatus; conditions: siderophores in ferri-form, 0.1, 1.0, 10 and 50 μM; 48 h at 37 °C
Protocol: as §1
Figure 2 Growth promotion analysis of FOX analogues. […]

S. aureus cultures = test system: S. aureus cultures; parameters: method as in PMID 34783539; conditions: 68Ga-labeled, iron-deficient cultures; cited from earlier work

Compound	logβ Ga(III)L [1]	pGa(III) [1]	growth promotion of ΔsidAΔftrA [2]	logβ Fe(III)L ([3]; T = 25 °C, I = 0.1 M NaClO4, M:L 1:1)	pFe(III) ([3]; calculated for [L] = 1 × 10−4 [M] = 1 × 10−5 at pH 7.4)	difference between Fe(III)-FOXE-blocked and -unblocked uptake [4]	growth of ΔsidAΔftrAΔsit1 (Sit1 dependence) [5]	logβ Fe(III)L ([3]; ref Reference2)	uptake (radioactivity level) in S. aureus cultures (S. aureus cultures)
O=C1CCN(O)C(=O)CCNC(=O)CCN(O)C(=O)CCNC(=O)CCN(O)C(=O)CCN1 [FOX 2–2]	26.44(5)	21.4	very limited growth promotion only at the highest tested concentration of 50 μM	25.92(8)	21.5	statistically insignificant	–	–	–
O=C1CCC(=O)N(O)CCCCCNC(=O)CCC(=O)N(O)CCCCCNC(=O)CCC(=O)N(O)CCCCCN1 [FOXE, ferrioxamine E]	29.79(1)	25.2	promoted	–	–	–	not	32.21(4)	high radioactivity levels
triacetylfusarinine C [TAFC]	–	–	able to grow	–	–	–	able to grow	–	–
